Data taken from PubChem BioAssay AID330 (DTP/NCI, 2004).
Where “and” joins values, the source holds several entries; their conditions need not be identical. Equal entries are not always repeated. Inconclusive results and toxic doses are left out. Rule for the calls: active = survival T/C of 150% or more; inactive = T/C below 125% in these data.

Test system: P388 leukemia ip, CD2F1 mice, survival T/C
Assay: NCI In Vivo Anticancer Drug Screen. Data for tumor model P388 Leukemia (intraperitoneal) in CD2F1 (CDF1) mice
Conditions: endpoint: median survival time, higher = longer survival
Procedure, shortened: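 Mice carrying the transplanted tumor received test compound or vehicle. Survival was recorded in each group, and the value is the treated-group measurement divided by that of the vehicle-treated control group.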

[1] = dose: 50.0 mg/kg/injection, schedule: Q01DX009 (ip), vehicle: Klucel (hydroxypropylcellulose) (HPC)
[2] = dose: 100.0 mg/kg/injection, schedule: Q01DX009 (ip), vehicle: Klucel (hydroxypropylcellulose) (HPC)
[3] = dose: 200.0 mg/kg/injection, schedule: Q01DX009 (ip), vehicle: Klucel (hydroxypropylcellulose) (HPC)
[4] = dose: 50.0 mg/kg/injection, schedule: Q01DX005 (ip), vehicle: saline with Tween-80
[5] = dose: 50.0 mg/kg/injection, schedule: Q01DX009 (ip), vehicle: saline with Tween-80
[6] = dose: 100.0 mg/kg/injection, schedule: Q01DX009 (ip), vehicle: saline with Tween-80
[7] = dose: 15.0 mg/kg/injection, schedule: Q01DX005 (ip), vehicle: saline with Tween-80
[8] = dose: 30.0 mg/kg/injection, schedule: Q01DX005 (ip), vehicle: saline with Tween-80
[9] = dose: 60.0 mg/kg/injection, schedule: Q01DX005 (ip), vehicle: saline with Tween-80
[10] = dose: 50.0 mg/kg/injection, schedule: Q01DX005 (ip), vehicle: Klucel (hydroxypropylcellulose) (HPC)
[11] = dose: 100.0 mg/kg/injection, schedule: Q01DX005 (ip), vehicle: Klucel (hydroxypropylcellulose) (HPC)
[12] = dose: 200.0 mg/kg/injection, schedule: Q01DX005 (ip), vehicle: Klucel (hydroxypropylcellulose) (HPC)
[13] = dose: 100.0 mg/kg/injection, schedule: Q01DX005 (ip), vehicle: saline

Measured: T/C

CCCCCCCC(=O)NC1CC(O[C@H]2C[C@](O)(C(C)=O)Cc3c(O)c4c(c(O)c32)C(=O)c2c(OC)cccc2C4=O)OC(C)C1O (stereo partly specified)
inactive: dose: 0.75 mg/kg/injection, schedule: Q01DX009 (ip), vehicle: other 113 % of control | dose: 2.0 mg/kg/injection, schedule: Q04DX003 (ip), vehicle: other 107 % of control | dose: 4.0 mg/kg/injection, schedule: Q04DX003 (ip), vehicle: other 98 % of control | dose: 8.0 mg/kg/injection, schedule: Q04DX003 (ip), vehicle: other 102 % of control | dose: 16.0 mg/kg/injection, schedule: Q04DX003 (ip), vehicle: other 105 % of control | dose: 32.0 mg/kg/injection, schedule: Q04DX003 (ip), vehicle: other 116 % of control and 96 % of control | dose: 50.0 mg/kg/injection, schedule: Q04DX003 (ip), vehicle: other 118 % of control | dose: 64.0 mg/kg/injection, schedule: Q04DX003 (ip), vehicle: other 114 % of control | dose: 100.0 mg/kg/injection, schedule: Q04DX003 (ip), vehicle: other 105 % of control | dose: 128.0 mg/kg/injection, schedule: Q04DX003 (ip), vehicle: other 123 % of control | dose: 256.0 mg/kg/injection, schedule: Q04DX003 (ip), vehicle: other 123 % of control | dose: 400.0 mg/kg/injection, schedule: Q04DX003 (ip), vehicle: other 115 % of control

O=C(O)CC1Sc2ccccc2NC1=O (stereo unspecified)
inactive: [1] 100 % of control | [2] 108 % of control | [3] 108 % of control | dose: 400.0 mg/kg/injection, schedule: Q01DX009 (ip), vehicle: Klucel (hydroxypropylcellulose) (HPC) 100 % of control

OC1COC(O)(CN2CCOCC2)C(O)C1O (stereo unspecified)
inactive: [4] 100 % of control | dose: 100.0 mg/kg/injection, schedule: Q01DX005 (ip), vehicle: saline with Tween-80 98 % of control | dose: 200.0 mg/kg/injection, schedule: Q01DX005 (ip), vehicle: saline with Tween-80 97 % of control

CC1(C)OP2(O)(OC(C)(C)c3ccccc32)c2ccccc21
inactive: [1] 99 % of control | [2] 102 % of control | [3] 104 % of control

C#CCOC(=O)C1CCCCC1
inactive: [5] 110 % of control | [6] 110 % of control | dose: 200.0 mg/kg/injection, schedule: Q01DX009 (ip), vehicle: saline with Tween-80 112 % of control

N#Cc1c(NC(=O)Nc2ccc(F)cc2F)sc(=S)c2c1CCCC2
inactive: [5] 100 % of control | [6] 99 % of control

CC1C2=C(CN(C)CC2)c2ccccc21 (stereo unspecified)
inactive: dose: 12.5 mg/kg/injection, schedule: Q01DX005 (ip), vehicle: saline with Tween-80 100 % of control | dose: 25.0 mg/kg/injection, schedule: Q01DX005 (ip), vehicle: saline with Tween-80 96 % of control | [4] 105 % of control

CC1(C)N=c2cc3c(cc2N1c1ccc(Cl)cc1)=Nc1ccccc1N3c1ccc(Cl)cc1
inactive: dose: 7.5 mg/kg/injection, schedule: Q01DX005 (ip), vehicle: saline with Tween-80 99 % of control | [7] 90 % of control | [8] 87 % of control | [9] 89 % of control

C=[CH][Sn](=[O])[CH]=C
inactive: dose: 50.0 mg/kg/injection, schedule: Q01DX009 (ip), vehicle: saline 104 % of control | dose: 100.0 mg/kg/injection, schedule: Q01DX009 (ip), vehicle: saline 105 % of control and 89 % of control | dose: 200.0 mg/kg/injection, schedule: Q01DX009 (ip), vehicle: saline 104 % of control and 88 % of control

CCC(C)C(=O)OC1CC2(C)C(c3ccoc3)OC(=O)CC23OC2(C)OC34C(OC(=O)C(C)C)C3(O)C(OC(=O)C5(C)OC5C)C5(C)CC3(O)C(C)(C5CC(=O)OC)C14O2 (stereo unspecified)
inactive: dose: 25.0 mg/kg/injection, schedule: Q01DX009 (ip), vehicle: Klucel (hydroxypropylcellulose) (HPC) 93 % of control | [1] 104 % of control | [2] 102 % of control | [3] 99 % of control

CCOC(=O)C(CCl)C(C(=O)OCC)C(=O)OCC (stereo unspecified)
inactive: dose: 25.0 mg/kg/injection, schedule: Q01DX009 (ip), vehicle: saline with Tween-80 117 % of control | [5] 110 % of control | [6] 112 % of control

CCOC(=O)C1C/C(=N\OS(=O)(=O)c2ccc(C)cc2)c2ccc(OC)c(OC)c2C1 (stereo unspecified)
inactive: dose: 25.0 mg/kg/injection, schedule: Q01DX009 (ip), vehicle: other 92 % of control | dose: 50.0 mg/kg/injection, schedule: Q01DX009 (ip), vehicle: other 89 % of control | dose: 100.0 mg/kg/injection, schedule: Q01DX009 (ip), vehicle: other 87 % of control | dose: 400.0 mg/kg/injection, schedule: Q01DX009 (ip), vehicle: other 97 % of control

C(=N/OC(c1ccccc1)(c1ccccc1)c1ccccc1)/c1ccccc1
inactive: dose: 25.0 mg/kg/injection, schedule: Q04DX003 (ip), vehicle: saline 104 % of control | dose: 75.0 mg/kg/injection, schedule: Q04DX003 (ip), vehicle: saline 100 % of control | dose: 150.0 mg/kg/injection, schedule: Q04DX003 (ip), vehicle: saline 95 % of control

CC(CCC1(O)OC2CC3C4CC=C5CC(OC6OC(CO)C(OC7OC(C)C(O)C(O)C7O)C(O)C6O)CCC5(C)C4CCC3(C)C2C1(C)C)COC1OC(C)C(O)C(O)C1O (stereo unspecified)
inactive: dose: 2.5 mg/kg/injection, schedule: Q01DX005 (ip), vehicle: Klucel (hydroxypropylcellulose) (HPC) 100 % of control | dose: 5.0 mg/kg/injection, schedule: Q01DX005 (ip), vehicle: Klucel (hydroxypropylcellulose) (HPC) 88 % of control

N#Cc1c(C(F)(F)F)cc(-c2cccs2)nc1SC(C(=O)Nc1cc(C(F)(F)F)cc(C(F)(F)F)c1)c1ccccc1 (stereo unspecified)
inactive: [10] 106 % of control | [11] 88 % of control | [12] 90 % of control

C[CH2][Sn]([CH2]C)([CH2]CC(=O)OC)[CH2]CC(=O)OC
inactive: dose: 12.5 mg/kg/injection, schedule: Q01DX005 (ip), vehicle: saline 113 % of control | dose: 25.0 mg/kg/injection, schedule: Q01DX005 (ip), vehicle: saline 120 % of control | [13] 119 % of control

CC(C)(C)C1CCS(=O)(=O)CC1.[Cl][Hg][Cl]
inactive: dose: 0.25 mg/kg/injection, schedule: Q01DX009 (ip), vehicle: saline 109 % of control | dose: 0.5 mg/kg/injection, schedule: Q01DX009 (ip), vehicle: saline 95 % of control | dose: 1.0 mg/kg/injection, schedule: Q01DX009 (ip), vehicle: saline 90 % of control

Cc1cccc(C)c1N=O
inactive: [1] 122 % of control and 124 % of control | [3] 87 % of control

Cc1cccc(Cl)c1NCCN1CCCC1
inactive: [7] 103 % of control | [8] 101 % of control | [9] 106 % of control and 108 % of control

CCOC(=O)Nc1nn(-c2ccccn2)c(=O)[nH]1
inactive: dose: 50.0 mg/kg/injection, schedule: Q01DX005 (ip), vehicle: distilled water + alcohol 107 % of control | dose: 100.0 mg/kg/injection, schedule: Q01DX005 (ip), vehicle: distilled water + alcohol 101 % of control | dose: 200.0 mg/kg/injection, schedule: Q01DX005 (ip), vehicle: distilled water + alcohol 99 % of control

C=C(C)C(=O)N(C)c1nc(N(C)C)nc(N(C)C)n1
inactive: [10] 101 % of control | [11] 103 % of control | [12] 103 % of control

O=C(O)C1(N(CCO)CCO)CCCC1
inactive: dose: 50.0 mg/kg/injection, schedule: Q01DX005 (ip), vehicle: saline 104 % of control | [13] 100 % of control | dose: 200.0 mg/kg/injection, schedule: Q01DX005 (ip), vehicle: saline 106 % of control
